# Source: US20230202989A1, “COMPOUNDS” (JANSSEN PHARMACEUTICA NV, priority 2020, published 2023)
# Like-named read-outs stand apart in the source and are kept apart here.
# What was measured:
# TNF = experiment: PBMC assay: TNF cytokine levels after LPS stimulation (MSD); type: cell-based; details: PBMC, human PBMCs, 100 ng/ml LPS for 6 hrs
# Procedure, shortened: (§1)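 TNF (EC50) and IL-1β (IC50) were quantified by MSD in supernatants after 6 h stimulation with 100 ng/ml LPS. Thawed healthy-donor PBMCs, 7.5×10^4 per well, were exposed to 1:3 compound dilutions for 30 min beforehand at 37 °C.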
# IL-1β = experiment: PBMC assay: inhibition of IL-1β release after LPS stimulation (MSD); type: cell-based; details: PBMC, human PBMCs, 100 ng/ml LPS for 6 hrs, MSD, 96 well plates, read-out: IL1β IC50
# Procedure, shortened: as §1
"EC50 (TNF; Homo sapiens, 6 h) [nM]","IC50 (IL-1β; Homo sapiens, 6 h) [nM]",melting point [°C],SMILES,EC50 (TNF) [nM],IC50 (IL-1β) [nM]
5580,30,246.08,"CC(C)c1nn(CC(=O)Nc2ccc3nncn3n2)c(=O)c2ccc(C(F)(F)F)cc12 [Final Cpd X2, N-([1,2,4]triazolo[4,3-b]pyridazin-6-yl)-2-(4-isopropyl-1-oxo-6-(trifluoromethyl)phthalazin-2(1H)-yl)acetamide]",,
> 20000,114,295.46,CC(C)c1nn(CC(=O)Nc2ccc3nc[nH]c3n2)c(=O)c2ccc(C(F)(F)F)cc12 [Final Cpd X13],,
> 20000,137,238.55,CC(C)c1nn(CC(=O)Nc2ccc3nccn3n2)c(=O)c2ccc(C(F)(F)F)cc12 [Final Cpd X16],,
> 20000,436,,CC(C)c1nn(CC(=O)Nc2ccc3cncn3c2)c(=O)c2ccc(Cl)cc12 [X-1030],,
4640,30,,CC(C)c1nn(CC(=O)Nc2ccc3c(c2)[nH]c(=O)n3C)c(=O)c2ccc(Br)cc12 [X-1031],,
> 20000,848,,CC(C)c1nn(CC(=O)Nc2ccc3cnn(C)c3c2)c(=O)c2ccc(Br)cc12 [X-1033],,
> 20000,3010,,CC(C)c1nn(CC(=O)Nc2ccc3cnn(C(F)F)c3c2)c(=O)c2ccc(Br)cc12 [X-1034],,
> 20000,32,,CC(C)c1nn(CC(=O)N[C@@H]2CCCN(C3CC3)C2)c(=O)c2ccc(Br)cc12 [X-1035],,
> 20000,141,,CC(C)c1nn(CC(=O)Nc2ccc(=O)n(C)n2)c(=O)c2ccc(Br)cc12 [X-1036],,
> 20000,2340,,CCc1nn(CC(=O)N[C@H]2C[C@@](C)(O)C2)c(=O)c2ccc(N(C)C)cc12 [X-1037],,
9550,2510,,CC(C)c1nn(CC(=O)Nc2ccncn2)c(=O)c2ccc(OC(F)(F)F)cc12 [X-1038],,
> 20000,13000,,CC(C)c1nn(CC(=O)N[C@H]2C[C@@](C)(O)C2)c(=O)c2ccc(OCC(F)(F)F)cc12 [X-1039],,
7190,1130,,CC(C)c1nn(CC(=O)Nc2ccc3nncn3c2)c(=O)c2ccc(OC(F)(F)F)cc12 [X-1040],,
> 20000,1330,,CC(C)c1nn(CC(=O)N[C@H]2C[C@@](C)(O)C2)c(=O)c2ccc(OC(F)(F)F)cc12 [X-1041],,
> 20000,12200,,CCOC(C)c1ccc2c(=O)n(CC(=O)N[C@H]3C[C@@](C)(O)C3)nc(C(C)C)c2c1 (stereo partly drawn) [X-1042],,
> 20000,11000,,CC(C)c1nn(CC(=O)N[C@H]2C[C@@](C)(O)C2)c(=O)c2ccc(C(C)(C)O)cc12 [X-1043],,
8290,4380,,CC(C)c1nn(CC(=O)Nc2ccncn2)c(=O)c2ccc(C(C)(C)O)cc12 [X-1044],,
> 20000,3760,,CC(C)c1nn(CC(=O)Nc2ccc3nncn3c2)c(=O)c2ccc(C(C)(C)O)cc12 [X-1045],,
> 20000,422,,CC(C)c1nn(CC(=O)Nc2ccc3nncn3c2)c(=O)c2ccc(N(C)C)cc12 [X-1046],,
> 20000,1570,,CC(C)c1nn(CC(=O)N[C@H]2C[C@@](C)(O)C2)c(=O)c2ccc(N(C)C)cc12 [X-1047],,

"EC50 (TNF; Homo sapiens, 6 h) [nM]","IC50 (IL-1β; Homo sapiens, 6 h) [nM]",melting point [°C],SMILES,EC50 (TNF) [nM],IC50 (IL-1β) [nM]
8080,270,,CC(C)c1nn(CC(=O)Nc2ccc3nncn3c2)c(=O)c2ccc(C(C)(C)C)cc12 [X-1048],,
> 20000,426,,CC(C)c1nn(CC(=O)N[C@H]2C[C@@](C)(O)C2)c(=O)c2ccc(C(C)(C)C)cc12 [X-1049],,
> 20000,990,,CC(C)c1nn(CC(=O)Nc2ccncn2)c(=O)c2ccc(C(C)(C)C)cc12 [X-1050],,
7020,106,,CC(C)c1nn(CC(=O)Nc2ccc3nncn3n2)c(=O)c2ccc(C(C)(C)C)cc12 [X-1051],,
> 20000,1260,,CC(C)c1nn(CC(=O)Nc2ccc3nncn3c2)c(=O)c2ccc(C(F)(F)C(F)(F)F)cc12 [X-1052],,
> 20000,3180,,CC(C)c1nn(CC(=O)Nc2ccnnc2)c(=O)c2ccc(C(F)(F)C(F)(F)F)cc12 [X-1053],,
18600,539,,COC(C)c1ccc2c(=O)n(CC(=O)Nc3ccc4nncn4c3)nc(C(C)C)c2c1 (stereo not drawn) [X-1054],,
> 20000,2130,,COC(C)c1ccc2c(=O)n(CC(=O)N[C@H]3C[C@@](C)(O)C3)nc(C(C)C)c2c1 (stereo partly drawn) [X-1055],,
14000,1610,,COC(C)c1ccc2c(=O)n(CC(=O)Nc3ccncn3)nc(C(C)C)c2c1 (stereo not drawn) [X-1056],,
17500,1910,,COC(C)(C)c1ccc2c(=O)n(CC(=O)Nc3ccc4nncn4c3)nc(C(C)C)c2c1 [X-1057],,
> 20000,4560,,COC(C)(C)c1ccc2c(=O)n(CC(=O)N[C@H]3C[C@@](C)(O)C3)nc(C(C)C)c2c1 [X-1058],,
> 20000,2420,,COC(C)(C)c1ccc2c(=O)n(CC(=O)Nc3ccncn3)nc(C(C)C)c2c1 [X-1059],,
> 20000,1740,,CC(C)c1nn(CC(=O)N[C@H]2C[C@@](C)(O)C2)c(=O)c2ccc(C#N)cc12 [X-1060],,
> 20000,> 20000,,CC(C)c1nn(CC(=O)Nc2ccncn2)c(=O)c2ccc(C#N)cc12 [X-1061],,
> 20000,90,,CC(C)c1nn(CC(=O)N[C@H]2C[C@@](C)(O)C2)c(=O)c2ccc(C(C)(F)F)cc12 [X-1062],,
1850,16,,CC(C)c1nn(CC(=O)Nc2ccc3nncn3c2)c(=O)c2ccc(C(C)(F)F)cc12 [X-1063],,
18900,533,,CC(C)c1nn(CC(=O)Nc2ccnnc2)c(=O)c2ccc(C(C)(F)F)cc12 [X-1064],,
15700,293,,CC(C)c1nn(CC(=O)Nc2ccc(=O)n(C)n2)c(=O)c2ccc(C(C)(F)F)cc12 [X-1065],,
6780,156,,CC(C)c1nn(CC(=O)Nc2ccc(=O)n(C)c2)c(=O)c2ccc(C(C)(F)F)cc12 [X-1066],,
13200,175,,CC(C)c1nn(CC(=O)Nc2ccc3nccn3c2)c(=O)c2ccc(C(C)(F)F)cc12 [X-1067],,

"EC50 (TNF; Homo sapiens, 6 h) [nM]","IC50 (IL-1β; Homo sapiens, 6 h) [nM]",melting point [°C],SMILES,EC50 (TNF) [nM],IC50 (IL-1β) [nM]
> 20000,2800,,CC(C)c1nn(CC(=O)N[C@H]2C[C@@](C)(O)C2)c(=O)c2ccc(C3CC3(F)F)cc12 (stereo partly drawn) [X-1068],,
14100,1140,,CC(C)c1nn(CC(=O)Nc2ccc3nncn3c2)c(=O)c2ccc(C3CC3(F)F)cc12 (stereo not drawn) [X-1069],,
> 20000,406,,C[C@]1(O)C[C@@H](NC(=O)Cn2nc(C3CC3)c3cc(Cl)ccc3c2=O)C1 [X-1070],,
> 20000,398,,O=C(Cn1nc(C2CC2)c2cc(Cl)ccc2c1=O)Nc1ccc2nncn2c1 [X-1071],,
> 20000,1400,,Cn1nc(NC(=O)Cn2nc(C3CC3)c3cc(Cl)ccc3c2=O)ccc1=O [X-1072],,
> 20000,220,,CCc1ccc2c(=O)n(CC(=O)Nc3ccc4nncn4c3)nc(C(C)C)c2c1 [X-1073],,
14800,27,,CC(C)c1nn(CC(=O)Nc2ccc3nncn3c2)c(=O)c2ccc(C3(F)CC3)cc12 [X-1074],,
> 20000,153,,Cc1nccc(NC(=O)Cn2nc(C(C)C)c3cc(C4(F)CC4)ccc3c2=O)c1F [X-1075],,
19700,33,,CC(C)c1nn(CC(=O)Nc2ccc3nncn3c2)c(=O)c2ccc(C(C)(C)F)cc12 [X-1076],,
16500,144,,CC(C)c1nn(CC(=O)Nc2ccc3nccn3c2)c(=O)c2ccc(C(C)(C)F)cc12 [X-1077],,
> 20000,1310,,CC(C)c1nn(CC(=O)Nc2ccc3nncn3c2)c(=O)c2ccc(C3CCC3)cc12 [X-1078],,
> 20000,9790,,"CC(O)c1nn(CC(=O)Nc2ccn(C(C)C)n2)c(=O)c2ccc(Br)cc12 (stereo not drawn) [X-1079, 2-(6-bromo-4-(1-hydroxyethyl)-1-oxophthalazin-2(1H)-yl)-N-(1-isopropyl-1H-pyrazol-3-yl)acetamide]",,
> 20000,502,,CC(O)c1nn(CC(=O)N[C@H]2C[C@@](C)(O)C2)c(=O)c2ccc(Br)cc12 (stereo partly drawn) [X-1080],,
> 20000,894,,CC(O)c1nn(CC(=O)Nc2ccncn2)c(=O)c2ccc(Br)cc12 (stereo not drawn) [X-1081],,
> 20000,346,,CC(O)c1nn(CC(=O)Nc2ccc3nncn3c2)c(=O)c2ccc(Br)cc12 (stereo not drawn) [X-1082],,
> 20000,143,,CC(C)c1nn(CC(=O)Nc2cn3cnnc3cn2)c(=O)c2ccc(C(C)(F)F)cc12 [X-1085],,
> 20000,137,,CC(C)c1ccc2c(=O)n(CC(=O)Nc3cn4cnnc4cn3)nc(C(C)C)c2c1 [X-1086],,
> 20000,196,,CO[C@]1(C)C[C@H](NC(=O)Cn2nc(C(C)C)c3cc(Br)ccc3c2=O)C1 [X-1088],,
,,,"CC[C@]1(O[Si](C)(C)C(C)(C)C)C[C@@H](NC(=O)Cn2nc(C(C)C)c3cc(Br)ccc3c2=O)C1 [X-1089, 2-(6-bromo-4-isopropyl-1-oxophthalazin-2(1H)-yl)-N-((1r,3s)-3-((tert-butyldimethylsilyl)oxy)-3-ethylcyclobutyl)acetamide]",> 20000,> 20000
,,,"CC[C@]1(O)C[C@@H](NC(=O)Cn2nc(C(C)C)c3cc(Br)ccc3c2=O)C1 [X-1090, 2-(6-bromo-4-isopropyl-1-oxophthalazin-2(1H)-yl)-N-((1r,3s)-3-ethyl-3-hydroxycyclobutyl)acetamide]",> 20000,122
